From patent publication US9884012B2, “Use of PEDF-derived polypeptides for promoting muscle or tendon regeneration or arteriogenesis” (MacKay Memorial Hospital, priority 2012, dated 2018)

Experiments:
[1] = system: soleus muscle (muscle fibers, satellite cells); experiment: bupivacaine myonecrosis model, BrdU and Pax7 labeling of soleus muscle; assay type: in vivo, Sprague-Dawley rats; conditions: soleus muscle after bupivacaine injection; for BrdU Labeling Index (%): 50 μl sustained-release formulation (Bolus: bolus 29-mer), single intramuscular injection; for Pax7 Labeling Index (%): sustained-release formulation (Bolus: bolus 29-mer)
Procedure: De-paraffinized tissue sections were blocked with 10% goat serum for 1 hour. Staining was done using primary antibodies against BrdU (1:50 dilution; GTX42641) or type I collagen 1A1 (1:50 dilution) overnight at 4° C., followed by incubation with the appropriate peroxidase-labeled donkey immunoglobulin for 30 min and then with chromogen substrate (3,3′-diaminobenzidine) for 2 min before counterstaining with hematoxylin. Quantification was estimated based on high quality images (1208×960 pixels) captured using a Nikon Eclipse 80i light microscope.
For the detection of cell expansion, BrdU was reconstituted in DMSO as stock (80 mM). 10 μl of BrdU mixed with 90 μl of PBS was intraperitoneally injected into the mouse 16 hours prior to euthanasia. Also, 150 μl of BrdU mixed with 350 μl of PBS was intraperitoneally injected into the rat 16 hours prior to euthanasia. DNA synthesis was assessed by BrdU labeling with anti-BrdU antibodies.
De-paraffinized tissue sections or 4% paraformaldehyde fixed rabbit tendon stem cells (TSCs) were blocked with 10% goat serum and 5% BSA for 1 hour. Double staining was done using primary antibodies against α-SMA (1:100 dilution), IB4 (5 μg/ml), Pax7 (1:100 dilution), nucleostemin (1:100 dilution) and type I collagen 1A1 (1:50) at 37° C. for 2 hours, followed by incubation with the appropriate rhodamine- or FITC-conjugated donkey IgG for 1 hour at RT. Nuclei were located by counterstaining with Hoechst 33258 for 7 minutes. Images were captured using a Zeiss epifluorescence microscope with a CCD camera.
To investigate the effects of the present PEDF peptides on muscle regeneration, a rat myonecrosis model of a single injection of bupivacaine into the soleus muscle was employed. Adult 10-week-old male Sprague-Dawley rats (initial body weight=312±11 g) were anesthetized by an intraperitoneal injection of a xylazine (10 mg/kg). Then, the soleus muscle was injured by unilaterally injecting 0.5 ml bupivacaine (AstraZeneca) with a disposable syringe with a 26-gauge needle. Briefly, the needle was inserted into the distal portion of the soleus muscle and then receded longitudinally to the proximal portion accompanying evenly bupivacaine solution injection. The solution was then injected throughout the entire length of the muscle as the needle was slowly withdrawn.
After bupivacaine injection, rats were divided equally (n=10/group) into four experimental groups and treated as follows. […]
Muscle regeneration involves proliferation of muscle fibers, or muscle cells. […] Detailed assay procedures are as described in “Materials and Methods.” The level of BrdU-positive cells was expressed as labeling index (%), which was computed as the number of labeled cells divided by the total number of cells. […]

[2] = in vitro release of PEDF peptides from alginate gel in PBS; assay type: physicochemical; conditions: PBS pH 7.4, 37° C.; for peptide remained in the alginate gel matrix: after 24 hours, FITC-conjugated peptide in alginate hydrogel
Procedure: Each PEDF-derived short synthetic peptide (the 29-mer, 25-mer, 24-mer, 20-mer, 18-mer, MO 29-mer, or MO 20-mer; hereinbelow, PEDF peptide) was reconstituted in DMSO as stock (5 mM). Then, ultrapure alginate was mixed with the stock to obtain a 2% wt/vol alginate solution with PEDF peptide at a final concentration of 10 μM. The alginate solution was then filtered by membrane filter (pore size, 0.22 μm) and mixed with filtered calcium sulfate (0.21 g CaSO4/mL of dH2O) at a ratio of 25:1 (40 μL of CaSO4 per 1 mL of the filtered alginate solution). The mixture was let standing at RT for about 1 hour to allow for the cross-linking of the alginate. The resultant sustained-release formulation was then used in the treatment of muscle or tendon damage and ischemia.
To determine the release kinetics of 29-mer and 20mer, 100 μg of FITC-conjugated PEDF peptide was mixed with 100 μL alginate solution, and then hydrogels were prepared as set forth in the “Materials and Methods” section. Thereafter, 100 mg hydrogel was incubated in 1.5 ml of PBS (pH 7.4) in microcentrifuge tube and placed in an orbital shaking incubator over a 6-day period at 37° C. The tube was centrifuged at each predetermined time point and then 200 μL of supernatant was removed and stored at −80° C. for further analysis, and 200 μL of fresh PBS was added to the tube to replace the supernatant withdrawn. The concentration of FITC-conjugated PEDF peptide present in the collected supernatants was determined using a fluorimeter in 96-well format. A known non-encapsulated FITC-peptide was used to generate a standard curve. Triplicate data were used for analysis.

Row | Sequence | BrdU Labeling Index (%) [1] | Pax7 Labeling Index (%) [1] | peptide remained in the alginate gel matrix [2] | peptide released from alginate gel ([2]; in the first 3 days) | peptide released from alginate gel ([2]; within the first 4 days)
1 | SLGAEQRTESIIHRALYYDL [20-mer, synthetic peptide corresponding to residues 93-112 of human PEDF] | 13.6 ± 3.0% | 14.6 ± 1.9% | ~35% | about 90% | –
2 | SLGAEQRTESIIHRALYYDLISSPDIHGT [29-mer, synthetic peptide corresponding to residues 93-121 of human PEDF] | 15.4 ± 1.7% | 16.2 ± 2.0% | approximately 48% | – | 90%
